Here are results for 33 compounds from ChEMBL document CHEMBL5550124, “Structure-activity relationship studies of tetrahydroquinolone derivatives as GPR41 modulators” (Bioorg Med Chem Lett, 2024).

Holding throughout (assay type): functional, cell-based
Assay [1] concerns the target T1, Free fatty acid receptor 3 (Homo sapiens) (UniProt O14843).
T1 sequence (whole entry): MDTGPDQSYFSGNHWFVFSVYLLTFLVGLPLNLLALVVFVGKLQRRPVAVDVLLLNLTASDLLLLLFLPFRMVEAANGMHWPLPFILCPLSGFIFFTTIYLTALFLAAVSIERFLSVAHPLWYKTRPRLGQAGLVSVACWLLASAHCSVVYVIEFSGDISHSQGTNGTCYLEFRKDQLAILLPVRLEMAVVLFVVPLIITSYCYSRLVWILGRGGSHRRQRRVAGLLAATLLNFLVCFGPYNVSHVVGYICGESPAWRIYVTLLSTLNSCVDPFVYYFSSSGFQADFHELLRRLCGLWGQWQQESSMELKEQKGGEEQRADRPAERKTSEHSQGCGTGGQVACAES
The assay can be described thus: Antagonist activity at doxycyclin-induced GPR41 (unknown origin) overexpressed in HEK293 cells assessed as increase in forskolin/propionate-induced cAMP level at 1 uM. In general terms: cAMP levels reflect the balance of adenylyl cyclase and phosphodiesterase activity.

Assay [2] addresses T1, Free fatty acid receptor 3 (Homo sapiens). The assay can be described thus: Agonist activity at doxycyclin-induced GPR41 (unknown origin) overexpressed in HEK293 cells assessed as decrease in forskolin-induced cAMP level at 30 uM.
Assay [3] has the same target. The assay can be described thus: Agonist activity at GPR41 (unknown origin) overexpressed in HEK293 cells assessed as decrease in forskolin-induced cAMP level.
For assay [4], the target named is T2, Free fatty acid receptor 3 (Homo sapiens, UniProt O14843).
T2 sequence (O14843 whole entry): T1 sequence (whole entry)
Kind of assay: Agonist activity at doxycyclin-induced GPR41 (unknown origin) overexpressed in HEK293 cells assessed as decrease in forskolin-induced cAMP level.

The target of assay [5] is T1, Free fatty acid receptor 3 (Homo sapiens). The assay can be described thus: Agonist activity at doxycyclin-induced GPR41 (unknown origin) overexpressed in HEK293 cells assessed as decrease in forskolin-induced cAMP level at 1 uM.
Assay [6] addresses T3, Free fatty acid receptor 2 (Homo sapiens) (UniProt O15552).
T3 sequence (whole entry): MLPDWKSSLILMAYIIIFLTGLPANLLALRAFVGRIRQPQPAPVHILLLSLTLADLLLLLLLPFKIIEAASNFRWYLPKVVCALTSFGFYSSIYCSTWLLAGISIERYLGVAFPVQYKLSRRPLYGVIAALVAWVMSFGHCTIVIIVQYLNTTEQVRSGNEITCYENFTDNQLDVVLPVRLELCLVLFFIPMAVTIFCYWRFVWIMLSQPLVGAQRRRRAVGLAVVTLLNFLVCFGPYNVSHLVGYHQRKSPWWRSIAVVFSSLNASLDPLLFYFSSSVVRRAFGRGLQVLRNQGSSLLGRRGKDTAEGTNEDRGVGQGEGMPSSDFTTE
The assay can be described thus: Agonist activity at GPR43 (unknown origin) overexpressed in HEK293 cells assessed as decrease in forskolin-induced cAMP level at 1 uM.

The target in assay [7] is T1, Free fatty acid receptor 3 (Homo sapiens). Kind of assay: Agonist activity at doxycyclin-induced GPR41 (unknown origin) overexpressed in HEK293 cells assessed as decrease in forskolin-induced cAMP level at 10 uM. The following applies: filed as agonist.

Each structure is given as a SMILES string. The source made the active and inactive calls. No cut-off for these calls is given here.

In the case of `CC1=C(C(=O)Nc2ccccc2C)C(c2ccc(-c3cccc(Cl)c3)o2)C2=C(CCCC2=O)N1` (stereo unspecified), in assay [1], the result was inactive.
As for `CC1=C(C(=O)Nc2ccccc2C)C(c2ccc(-c3ccc(F)cc3)o2)C2=C(CCCC2=O)N1` (stereo unspecified), the result in assay [1] was inactive.
Take `CC1=C(C(=O)Nc2cc(Cl)ccc2Cl)C(c2ccc(-c3cc(F)cc(F)c3)o2)C2=C(CCCC2=O)N1` (stereo unspecified): the result in assay [2] and in assay [3] was inactive.
`CC1=C(C(=O)Nc2ccccc2C)C(c2ccc(-c3cccc(C#N)c3)o2)C2=C(CCCC2=O)N1` (stereo unspecified): the outcome in assay [1] was inactive.
On to `COc1cc(OC)cc(-c2ccc(C3C(C(=O)Nc4ccccc4C)=C(C)NC4=C3C(=O)CCC4)o2)c1` (stereo unspecified), for which the result in assay [1] was inactive.
`CC1=C(C(=O)Nc2ccccc2C)C(c2ccc(-c3ccc(F)c(F)c3F)o2)C2=C(CCCC2=O)N1` (stereo unspecified): in assay [4], the EC50 (commonly the midpoint of the concentration-response curve) was found to be 5510 nM. Also, the result in assay [3] and in assay [6] was inactive. Besides, the outcome in assay [5] (filed as agonist) was Active.
Take `CC1=C(C(=O)Nc2ccccc2C)C(c2ccc(-c3ccsc3)o2)C2=C(CCCC2=O)N1` (stereo unspecified): the outcome in assay [1] was inactive.
Take `CC1=C(C(=O)Nc2ccccc2C)C(c2ccc(-c3ccc(C(F)(F)F)cc3)o2)C2=C(CCCC2=O)N1` (stereo unspecified): the outcome in assay [5] (filed as agonist) was Active. Also, in assay [1], the outcome was inactive.
For the compound `CC1=C(C(=O)Nc2ccccc2C)C(c2ccc(-c3ccc(Cl)cc3)o2)C2=C(CCCC2=O)N1` (stereo unspecified), the result in assay [1] was inactive.
Same read-out and setting: the value for `CC1=C(C(=O)Nc2ccccc2C)C(c2ccc(-c3cc(C(F)(F)F)cc(C(F)(F)F)c3)o2)C2=C(CCCC2=O)N1` (stereo unspecified) was “inactive”.
As for `CC1=C(C(=O)Nc2cc(Cl)ccc2Cl)C(c2ccco2)C2=C(CCCC2=O)N1` (stereo unspecified), the concentration for a half-maximal effect (EC50) in assay [4] was found to be 741 nM. In addition, the result in assay [1] and in assay [6] was inactive.
`CC1=C(C(=O)Nc2ccccc2C)C(c2ccc(-c3ccccc3C(F)(F)F)o2)C2=C(CCCC2=O)N1` (stereo unspecified): the outcome in assay [1] was inactive.
On to `CC1=C(C(=O)Nc2ccccc2C)C(c2ccc(-c3cc(F)c(F)c(F)c3)o2)C2=C(CCCC2=O)N1` (stereo unspecified), for which the EC50 in assay [4] was 5890 nM. Further, the outcome in assay [3] and in assay [6] was inactive. Besides, the outcome in assay [5] (filed as agonist) was Active.
Regarding `CC1=C(C(=O)Nc2ccccc2C)C(c2ccc(-c3cc(F)cc(F)c3)o2)C2=C(CCCC2=O)N1` (stereo unspecified), the concentration giving a half-maximal response (EC50) in assay [4] was 679 nM. Besides, the outcome in assay [3], in assay [1] and in assay [6] was inactive. In addition, the result in assay [5] (filed as agonist) was Active.
For the compound `CC1=C(C(=O)Nc2ccccc2C)C(c2ccc(-c3ccc(C)cc3)o2)C2=C(CCCC2=O)N1` (stereo unspecified), in assay [1], the result was inactive.
Take `CC1=C(C(=O)Nc2ccccc2C)C(c2ccc(-c3cc(Cl)cc(Cl)c3)o2)C2=C(CCCC2=O)N1` (stereo unspecified): the outcome in assay [5] was inactive.
For the compound `CC1=C(C(=O)Nc2ccccc2C)C(c2ccc(-c3ccccc3C#N)o2)C2=C(CCCC2=O)N1` (stereo unspecified), the outcome in assay [1] was inactive.
Turning to `CC1=C(C(=O)Nc2ccccc2C)C(c2ccc(-c3ccc(F)c(F)c3)o2)C2=C(CCCC2=O)N1` (stereo unspecified), the EC50 in assay [4] was determined as 3400 nM. The outcome in assay [3] and in assay [6] was inactive. In assay [5] (filed as agonist), the result was Active.
On to `CC1=C(C(=O)Nc2ccccc2C)C(c2ccc(-c3ccccc3F)o2)C2=C(CCCC2=O)N1` (stereo unspecified), for which the outcome in assay [1] was inactive.
Turning to `CC1=C(C(=O)Nc2ccccc2C)C(c2ccc(-c3ccccc3OC(F)(F)F)o2)C2=C(CCCC2=O)N1` (stereo unspecified), the result in assay [1] (filed as antagonist) was Active.
In the case of `CC1=C(C(=O)Nc2ccccc2C)C(c2ccc(-c3c(F)cccc3F)o2)C2=C(CCCC2=O)N1` (stereo unspecified), the outcome in assay [5] was inactive.
With `CC1=C(C(=O)Nc2cc(Cl)ccc2Cl)C(c2ccc(-c3cc(F)c(F)c(F)c3)o2)C2=C(CCCC2=O)N1` (stereo unspecified), the result in assay [2] and in assay [3] was inactive.
Turning to `CCC(=O)O`, the result in assay [1] was inactive. In addition, the result in assay [6] (filed as agonist) was Active.
As for `CC1=C(C(=O)Nc2ccccc2C)C(c2ccc(-c3ccco3)o2)C2=C(CCCC2=O)N1` (stereo unspecified), the result in assay [1] was inactive.
On the same count and under the same terms, the value for `CC1=C(C(=O)Nc2ccccc2C)C(c2ccc(-c3cc(C)cc(C)c3)o2)C2=C(CCCC2=O)N1` (stereo unspecified) was “inactive”.
For the compound `CC1=C(C(=O)Nc2cc(Cl)ccc2Cl)C(c2ccc(-c3ccc(F)c(F)c3F)o2)C2=C(CCCC2=O)N1` (stereo unspecified), the EC50 in assay [4] was determined as 447 nM. The outcome in assay [3] and in assay [6] was inactive.
As to `CC1=C(C(=O)Nc2ccccc2C)C(c2ccc(-c3ccccc3)o2)C2=C(CCCC2=O)N1` (stereo unspecified), in assay [7], the result was Active. Further, the result in assay [1] was inactive.
In the case of `CC1=C(C(=O)Nc2ccccc2C)C(c2ccc(-c3cccc(C(F)(F)F)c3)o2)C2=C(CCCC2=O)N1` (stereo unspecified), the outcome in assay [1] was inactive.
On to `COc1cccc(-c2ccc(C3C(C(=O)Nc4ccccc4C)=C(C)NC4=C3C(=O)CCC4)o2)c1` (stereo unspecified), for which the outcome in assay [1] was inactive.
The same measure, in the same setting: next, `CC1=C(C(=O)Nc2ccccc2C)C(c2ccc(-c3cccc(F)c3)o2)C2=C(CCCC2=O)N1` (stereo unspecified): “inactive”.
Turning to `CC1=C(C(=O)Nc2cc(Cl)ccc2Cl)C(c2ccc(-c3ccc(F)c(F)c3)o2)C2=C(CCCC2=O)N1` (stereo unspecified), the result in assay [2] and in assay [3] was inactive.
With `CC1=C(C(=O)Nc2ccccc2C)C(c2ccc(-c3ccc(F)cc3F)o2)C2=C(CCCC2=O)N1` (stereo unspecified), the result in assay [5] (filed as agonist) was Active.
Take `CC1=C(C(=O)Nc2ccccc2C)C(c2ccc(-c3ccccc3Cl)o2)C2=C(CCCC2=O)N1` (stereo unspecified): the result in assay [1] was inactive.
